Test results from ChEMBL document CHEMBL5113477, “Membrane acting Povarov-Doebner derived compounds potently disperse preformed multidrug resistant Gram-positive bacterial biofilms” (Eur J Med Chem, 2022).
Converted amounts (≈) assume the structure as drawn. The source made the active and inactive calls. The calls are words filed in the database; no cut-off is given here.

Assays:
[1] = test system: Enterococcus faecalis; experiment: Synergistic antibiofilm activity against vancomycin-resistant Enterococcus faecalis ATCC 51575 in TSB broth assessed as dispersal of glucose-induced biofilm preincubated with glucose for 48 hrs followed by compound addition and further incubated for 24 hrs in presence of Nitroxoline by crystal violet staining based checkerboard assay; assay type: functional
[2] = test system: Enterococcus faecium; experiment: Synergistic antibiofilm activity against vancomycin-resistant Enterococcus faecium ATCC 700221 in TSB broth assessed as dispersal of glucose-induced biofilm at 1 ug/ml preincubated with glucose for 48 hrs followed by compound addition and further incubated for 24 hrs in presence of 1 ug/ml Bithionol and AgNO3 by crystal violet staining based analysis; assay type: functional; settings: dose 1 µg/ml
[3] = test system: Staphylococcus aureus; experiment: Synergistic antibiofilm activity against methicillin-resistant Staphylococcus aureus USA 300 in TSB broth assessed as dispersal of glucose-induced biofilm at 1 ug/ml preincubated with glucose for 48 hrs followed by compound addition and further incubated for 24 hrs in presence of 1 ug/ml Bithionol and AgNO3 by crystal violet staining based analysis; assay type: functional; settings: dose 1 µg/ml
[4] = test system: Enterococcus faecalis; experiment: Antibiofilm activity against vancomycin-resistant Enterococcus faecalis ATCC 51575 in TSB broth assessed as dispersal of glucose-induced biofilm at 8 to 16 ug/ml preincubated with glucose for 48 hrs followed by compound addition and measured after 24 hrs by crystal violet staining based analysis; assay type: functional; settings: dose 8-16 µg/ml, at 8 to 16 µg/mL
[5] = test system: Listeria monocytogenes; experiment: Antibacterial activity against Listeria monocytogenes ATCC 19115 assessed as reduction in visible bacterial growth incubated for 18 to 20 hrs by CLSI based broth microdilution analysis; assay type: functional; settings: time 18-20 hrs
[6] = test system: Staphylococcus aureus; experiment: Synergistic antibiofilm activity against methicillin-resistant Staphylococcus aureus USA 300 in TSB broth assessed as dispersal of glucose-induced biofilm with distribution of ruptured bacteria components and debris at 4 ug/ml preincubated with glucose for 48 hrs followed by compound addition and further incubated for 24 hrs in presence of Bithionol by SEM analysis; assay type: functional, organism-based; settings: dose 4.0 µg/ml
[7] = test system: Staphylococcus aureus; experiment: Antibacterial activity against methicillin-resistant Staphylococcus aureus USA 300 (ARLG 1569) assessed as reduction in visible bacterial growth incubated for 18 to 20 hrs by CLSI based broth microdilution analysis; assay type: functional; settings: time 18-20 hrs
[8] = test system: Staphylococcus aureus; experiment: Synergistic antibiofilm activity against methicillin-resistant Staphylococcus aureus USA 300 in TSB broth assessed as dispersal of glucose-induced biofilm by measuring fractional inhibitory concentration index preincubated with glucose for 48 hrs followed by compound addition and further incubated for 24 hrs in presence of Bithionol by crystal violet staining based checkerboard assay; assay type: functional
[9] = test system: Staphylococcus aureus; experiment: Antibacterial activity against methicillin-resistant Staphylococcus aureus USA 300 (ARLG 1567) assessed as reduction in visible bacterial growth incubated for 18 to 20 hrs by CLSI based broth microdilution analysis; assay type: functional; settings: time 18-20 hrs
[10] = test system: Staphylococcus aureus; experiment: Inhibition of biofilm formation in methicillin-resistant Staphylococcus aureus ATCC 33592 in TSB broth at 0.0078 to 4 ug/ml incubated for 48 hrs in presence of glucose by crystal violet staining based analysis; assay type: functional, organism-based; settings: dose 0.0078-4 µg/ml
[11] = test system: Enterococcus faecalis; experiment: Synergistic antibiofilm activity against vancomycin-resistant Enterococcus faecalis ATCC 51575 in TSB broth assessed as dispersal of glucose-induced biofilm by measuring fractional inhibitory concentration index preincubated with glucose for 48 hrs followed by compound addition and further incubated for 24 hrs in presence of Nitroxoline by crystal violet staining based checkerboard assay; assay type: functional
[12] = test system: Staphylococcus aureus; experiment: Antibacterial activity against methicillin-resistant Staphylococcus aureus USA 300 (ARLG 1644) assessed as reduction in visible bacterial growth incubated for 18 to 20 hrs by CLSI based broth microdilution analysis; assay type: functional; settings: time 18-20 hrs
[13] = test system: Staphylococcus aureus; experiment: Inhibition of biofilm formation in methicillin-resistant Staphylococcus aureus USA 300 in TSB broth at 0.0078 to 4 ug/ml incubated for 48 hrs in presence of glucose by crystal violet staining based analysis; assay type: functional, organism-based; settings: dose 0.0078-4 µg/ml
[14] = test system: Staphylococcus aureus; experiment: Antibacterial activity against methicillin-resistant Staphylococcus aureus USA 300 (ARLG 1568) assessed as reduction in visible bacterial growth incubated for 18 to 20 hrs by CLSI based broth microdilution analysis; assay type: functional; settings: time 18-20 hrs
[15] = test system: Enterococcus faecium; experiment: Antibacterial activity against vancomycin-resistant Enterococcus faecium ATCC 700221 assessed as reduction in visible bacterial growth incubated for 18 to 20 hrs by CLSI based broth microdilution analysis; assay type: functional; settings: time 18-20 hrs
[16] = test system: Staphylococcus aureus; experiment: Antibacterial activity against methicillin-resistant Staphylococcus aureus USA 300 (ARLG 1649) assessed as reduction in visible bacterial growth incubated for 18 to 20 hrs by CLSI based broth microdilution analysis; assay type: functional; settings: time 18-20 hrs
[17] = test system: Staphylococcus aureus; experiment: Synergistic antibiofilm activity against methicillin-resistant Staphylococcus aureus USA 300 in TSB broth assessed as dispersal of glucose-induced biofilm by measuring Bithionol MBEC preincubated with glucose for 48 hrs followed by compound addition and measured after 24 hrs by crystal violet staining based checkerboard assay; assay type: functional
[18] = test system: Staphylococcus aureus; experiment: Antibiofilm activity against methicillin-resistant Staphylococcus aureus USA 300 in TSB broth assessed as dispersal of glucose-induced biofilm at 8 to 16 ug/ml preincubated with glucose for 48 hrs followed by compound addition and measured after 24 hrs by crystal violet staining based analysis; assay type: functional; settings: dose 8-16 µg/ml, at 8 to 16 µg/mL
[19] = test system: Staphylococcus aureus; experiment: Antibacterial activity against Staphylococcus aureus ATCC 25923 assessed as reduction in visible bacterial growth incubated for 18 to 20 hrs by CLSI based broth microdilution analysis; assay type: functional; settings: time 18-20 hrs
[20] = test system: Enterococcus faecalis; experiment: Inhibition of biofilm formation in vancomycin-resistant Enterococcus faecalis ATCC 51575 in TSB broth at 0.0078 to 4 ug/ml incubated for 48 hrs in presence of glucose by crystal violet staining based analysis; assay type: functional, organism-based; settings: dose 0.0078-4 µg/ml
[21] = test system: Staphylococcus aureus; experiment: Antibiofilm activity against methicillin-resistant Staphylococcus aureus ATCC 33592 in TSB broth assessed as dispersal of glucose-induced biofilm at 8 to 16 ug/ml preincubated with glucose for 48 hrs followed by compound addition and measured after 24 hrs by crystal violet staining based analysis; assay type: functional; settings: dose 8-16 µg/ml, at 8 to 16 µg/mL
[22] = test system: Enterococcus faecium; experiment: Synergistic antibiofilm activity against vancomycin-resistant Enterococcus faecium ATCC 700221 in TSB broth assessed as dispersal of glucose-induced biofilm […] preincubated with glucose for 48 hrs followed by compound addition and measured after 24 hrs by crystal violet staining based checkerboard assay; assay type: functional
[23] = test system: Enterococcus faecium; experiment: Antibiofilm activity against vancomycin-resistant Enterococcus faecium ATCC 700221 in TSB broth assessed as dispersal of glucose-induced biofilm preincubated with glucose for 48 hrs followed by compound addition and measured after 24 hrs by crystal violet staining based analysis; assay type: functional
[24] = test system: Staphylococcus aureus; experiment: Synergistic antibiofilm activity against methicillin-resistant Staphylococcus aureus USA 300 in TSB broth assessed as dispersal of glucose-induced biofilm preincubated with glucose for 48 hrs followed by compound addition and further incubated for 24 hrs in presence of Nitroxoline by crystal violet staining based checkerboard assay; assay type: functional
[25] = test system: Erythrocyte; experiment: Hemolytic activity in sheep RBC at 10 times MIC incubated for 30 mins by spectrophotometry; assay type: toxicity, cell-based, Ovis aries; settings: 0.5 h
[26] = test system: Staphylococcus aureus; experiment: Synergistic antibiofilm activity against methicillin-resistant Staphylococcus aureus USA 300 in TSB broth assessed as dispersal of glucose-induced biofilm at 4 ug/ml preincubated with glucose for 48 hrs followed by compound addition and further incubated for 24 hrs in presence of Bithionol by crystal violet staining based assay; assay type: functional; settings: dose 4 µg/ml

Question: `Oc1ccc([C@@H]2Nc3ccc(S(F)(F)(F)(F)F)cc3[C@H]3[C@@H]4CC[C@@H](C4)[C@H]32)cc1` was tested. Which MBEC [1] did it give?
Answer: 4 µg/mL

Question: And the Activity [2]?
Answer: >70%

Question: And the Activity [3]?
Answer: >80%

Question: And the Activity [4]?
Answer: 70%

Question: And the MIC [5]?
Answer: 1 µg/mL (≈ 2.4 µM)

Question: And the Activity [6]?
Answer: Active

Question: What about the MBC [7] of the same compound?
Answer: 2 µg/mL (≈ 4.79 µM)

Question: What about the MIC [7] of the same compound?
Answer: 1 µg/mL (≈ 2.4 µM)

Question: And the “fractional inhibitory concentration index (FICI)” value [8]?
Answer: 0.25

Question: And the MBC [9]?
Answer: 2 µg/mL (≈ 4.79 µM)

Question: What about the MIC [9] of the same compound?
Answer: 2 µg/mL (≈ 4.79 µM)

Question: And the inhibition [10]?
Answer: Active

Question: What about the “fractional inhibitory concentration index (FICI)” value [11] of the same compound?
Answer: 0.38

Question: And the MBC [12]?
Answer: 2 µg/mL (≈ 4.79 µM)

Question: And the MIC [12]?
Answer: 1 µg/mL (≈ 2.4 µM)

Question: And the inhibition [13]?
Answer: Active

Question: What about the MBC [14] of the same compound?
Answer: 2 µg/mL (≈ 4.79 µM)

Question: And the MIC [14]?
Answer: 2 µg/mL (≈ 4.79 µM)

Question: What about the MBC [15] of the same compound?
Answer: 2 µg/mL (≈ 4.79 µM)

Question: And the MIC [15]?
Answer: 2 µg/mL (≈ 4.79 µM)

Question: What about the MBC [16] of the same compound?
Answer: 2 µg/mL (≈ 4.79 µM)

Question: What about the MIC [16] of the same compound?
Answer: 1 µg/mL (≈ 2.4 µM)

Question: And the MBEC [17]?
Answer: 1 µg/mL

Question: What about the Activity [18] of the same compound?
Answer: 70%

Question: What about the MBC [19] of the same compound?
Answer: 2 µg/mL (≈ 4.79 µM)

Question: What about the MIC [19] of the same compound?
Answer: 2 µg/mL (≈ 4.79 µM)

Question: And the inhibition [20]?
Answer: Active

Question: And the Activity [21]?
Answer: 70%

Question: What about the MBEC [22] of the same compound?
Answer: 2 µg/mL

Question: And the MBEC [23]?
Answer: 32 µg/mL

Question: And the MBEC [24]?
Answer: 1 µg/mL

Question: What about the Activity [25] of the same compound?
Answer: Non-Toxic

Question: What about the Activity [26] of the same compound?
Answer: >80%
